For 19 molecules, Ki, IC50 and IC90 results are on record in patent US20040176431A1, “Antiproliferative 2-(sulfo-phenyl)-aminothiazole derivatives and pharmaceutical compositions, and methods for their use” (Pfizer, Inc., priority 2003, published 2004).

What is called pKi is −log10 of the Ki, conventionally taken in molar units. For orientation: pIC50 means the negative decadic logarithm of the IC50, by convention in mol/L. As a reminder, the IC90 is the point of the concentration-response curve where the effect stands at 90%.

pIC50, pKi: −log10 of the molar value. Bounds are passed on as bounds.

One experiment deals with T1, CDK4/cyclin D3 (Homo sapiens, UniProt P11802).
T1 construct: made in house; host or cells: insect cells (baculovirus co-infection)
T1 sequence (P11802 whole entry): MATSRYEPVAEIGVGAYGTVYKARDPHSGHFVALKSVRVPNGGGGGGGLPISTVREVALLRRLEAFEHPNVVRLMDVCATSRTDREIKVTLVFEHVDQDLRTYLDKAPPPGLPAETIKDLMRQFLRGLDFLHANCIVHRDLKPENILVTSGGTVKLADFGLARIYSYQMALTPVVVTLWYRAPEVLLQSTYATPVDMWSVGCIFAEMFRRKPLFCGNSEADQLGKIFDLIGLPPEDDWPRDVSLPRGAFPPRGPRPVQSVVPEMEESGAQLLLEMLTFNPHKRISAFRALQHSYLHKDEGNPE
T1 sequence (P30281 1-264 partner limits assumed): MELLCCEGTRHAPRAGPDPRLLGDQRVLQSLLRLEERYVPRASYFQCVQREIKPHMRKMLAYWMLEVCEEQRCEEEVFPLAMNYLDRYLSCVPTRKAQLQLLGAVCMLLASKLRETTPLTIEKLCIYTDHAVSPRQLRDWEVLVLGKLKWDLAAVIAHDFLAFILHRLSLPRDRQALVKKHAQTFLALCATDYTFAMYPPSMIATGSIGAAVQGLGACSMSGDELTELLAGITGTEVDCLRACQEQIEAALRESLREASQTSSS
Description: Inhibition of CDK4/Cyclin D retinoblastoma kinase activity. The class given is biochemical. Conditions: apparent Ki, Rb fragment substrate. The method, boiled down: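 Apparent Ki derived by fitting activity at varied inhibitor concentrations to competitive (or competitive tight-binding) inhibition equations, background without enzyme subtracted. Radiometric filter-binding read-out of Rb(386-928) phosphorylation by 5 nM CDK4/cyclin D3(1-264); 25 μM ATP, pH 7.4, 2% DMSO, 30° C., 20 min, extended to 60 min for tight binders.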

In a further experiment the target is T2, CDK2/cyclin A (Homo sapiens, UniProt P24941).
T2 construct: made in house; host or cells: CDK2: insect cells (baculovirus); cyclin A: E. coli, then limited proteolysis
Description: Inhibition of CDK2/Cyclin A retinoblastoma kinase activity. Conditions: apparent Ki, Rb fragment substrate. The class given is biochemical. As to the method:
Cyclin-dependent kinase activity was measured by quantifying the enzyme-catalyzed, time-dependent incorporation of radioactive phosphate from [^32P]ATP or [^33P]ATP into a protein substrate. Unless noted otherwise, assays were performed in 96-well plates in a total volume of 50 μL, in the presence of 10 mM HEPES (N-[2-hydroxyethyl]piperazine-N′-[2-ethanesulfonic acid]) (pH 7.4), 10 mM MgCl2, 25 μM adenosine triphosphate (ATP), 1 mg/mL ovalbumin, 5 μg/mL leupeptin, 1 mM dithiothreitol, 10 mM β-glycerophosphate, 0.1 mM sodium vanadate, 1 mM sodium fluoride, 2.5 mM ethylene glycol-bis(β-aminoethyl ether)-N,N,N′N′-tetraacetic acid (EGTA), 2% (v/v) dimethylsulfoxide, and 0.03-0.4 μCi [^32/33P]ATP per reaction. Reactions were initiated with enzyme, incubated at 30° C., and terminated after 20 minutes by the addition of ethylenediaminetetraacetic acid (EDTA) to 250 mM. The phosphorylated substrate was then captured on a nitrocellulose or phosphocellulose membrane using a 96-well filtration manifold, and unincorporated radioactivity was removed by repeated washing with 0.85% phosphoric acid. Radioactivity was quantified by exposing the dried membranes to a phosphorimager.
Inhibition was measured relative to control wells that contained all reaction components including 2% (v/v) DMSO but no compound, after subtraction of background radioactivity measured in the absence of enzyme. Apparent Ki values of discrete compounds were measured by assaying enzyme activity in the presence of different inhibitor compound concentrations and subtracting the background radioactivity measured in the absence of enzyme. The kinetic parameters (kcat, Km for ATP) were measured for each enzyme under the usual assay conditions by determining the dependence of initial rates on ATP concentration. Inhibition data were fit to an equation for competitive inhibition using Kaleidagraph (Synergy Software), or were fit to an equation for competitive tight-binding inhibition using the software KineTic (BioKin, Ltd.).
CDK2 was purified using published methodology (Rosenblatt et al., J. Mol. Biol., 230, 1317-1319 (1993)) from insect cells that had been infected with a baculovirus expression vector. Cyclin A was purified from E. coli cells expressing full-length recombinant cyclin A, and a truncated cyclin A construct was generated by limited proteolysis and purified as described previously (Jeffrey et al., Nature, 376, 313-320 (1995)). A complex of CDK2 and proteolyzed cyclin A was prepared and purified by gel filtration. The substrate for this assay was the same Rb substrate fragment used for the CDK4 assays, and the methodology of the CDK2/delta cyclin A and the CDK4/delta cyclin D3 assays was essentially the same, except that CDK2 was present at 10 nM or 19 nM. The duration of the assay was 60 or 75 minutes, during which the time-dependence of product formation was linear and initial rate conditions were met.

The test system of the next experiment is HCT-116 cells. Description: Inhibition of cell growth (MTT tetrazolium salt assay). The class given is cell-based. As to conditions: Homo sapiens; for pIC50: read-out: HCT116 IC50; for IC90: read-out: HCT116 IC90. The method, boiled down:
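HCT-116 cells in McCoy's 5A were pre-incubated 4 h, then exposed to compounds in 0.5% DMSO for 4–6 days at 37 °C. MTT at 0.2 mg/mL final was added for 4 h and DMSO-solubilized formazan read at 540 nm. Values are relative to 0.5% DMSO-only controls.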
In general terms: Formazan colour is commonly taken as a measure of viable cells.

Regarding `Cc1ccsc1C(=O)c1sc(Nc2ccc(S(N)(=O)=O)cc2)nc1N` [C(48)*, reference compound], the pKi was 7.72 at CDK4/cyclin D3 and 7.96 at CDK2/cyclin A. For the same molecule, the negative logarithm of the IC50 (pIC50) with HCT-116 cells was 6.47.
In the case of `Nc1nc(Nc2ccc(S(=O)(=O)NCC3CCCNC3)cc2)sc1C(=O)c1c(F)cccc1F` (stereo not drawn) [D(1), 4-[4-Amino-5-(2,6-difluoro-benzoyl)-thiazol-2-ylamino]-N-piperidin-3-ylmethyl-benzenesulfonamide], the negative-log Ki (pKi) at CDK4/cyclin D3 is 7.92. For the same molecule, at CDK2/cyclin A, the pKi was 7.74. For the same molecule, in the experiment on HCT-116 cells, the pIC50 was 4.77 and the IC90 is > 25000 nM.
Take `Nc1nc(Nc2ccc(S(=O)(=O)NCC3CCCCN3)cc2)sc1C(=O)c1c(F)cccc1F` (stereo not drawn) [D(2), 4-[4-Amino-5-(2,6-difluoro-benzoyl)-thiazol-2-ylamino]-N-piperidin-2-ylmethyl-benzenesulfonamide]: the pKi at CDK4/cyclin D3 was 7.70; on CDK2/cyclin A, 7.35. Besides, the pIC50 in the experiment with HCT-116 cells is 5.40. In the experiment with HCT-116 cells, the concentration for an effect of 90% (IC90) came to 9200 nM.
For `CNCCNS(=O)(=O)c1ccc(Nc2nc(N)c(C(=O)c3c(F)cccc3F)s2)cc1` [D(3), 4-[4-Amino-5-(2,6-difluoro-benzoyl)-thiazol-2-ylamino]-N-(2-methylamino-ethyl)-benzenesulfonamide], in that order: 8.24, 8.03, 5.54 and > 5000 nM.
In the same order, the values of `Cc1csc(NS(=O)(=O)c2ccc(Nc3nc(N)c(C(=O)c4c(F)cccc4F)s3)cc2)n1` [E(1), 4-[4-Amino-5-(2,6-difluoro-benzoyl)-thiazol-2-ylamino]-N-(4-methyl-thiazol-2-yl)-benzenesulfonamide] are 7.38, 7.82, 5.15 and 17000 nM.
For `Nc1nc(Nc2ccc(S(=O)(=O)N3CCNCC3)cc2)sc1C(=O)c1c(F)cccc1F` [Example A(1), {4-Amino-2-[4-(piperazine-1-sulfonyl)-phenylamino]-thiazol-5-yl}-(2,6-difluoro-phenyl)-methanone], in that order: 7.59, 7.85, 6.00 and 2700 nM.
As to `CN(C)CCNS(=O)(=O)c1ccc(Nc2nc(N)c(C(=O)c3c(F)cccc3F)s2)cc1` [Example A(2), 4-[4-Amino-5-(2,6-difluoro-benzoyl)-thiazol-2-ylamino]-N-(2-dimethylamino-ethyl)-benzenesulfonamide], the pKi on CDK4/cyclin D3 is 8.12. The pKi at CDK2/cyclin A is 8.35. For the same molecule, in the experiment on HCT-116 cells, the pIC50 was 6.44 and the concentration for an effect of 90% (IC90) came out at 1100 nM.
For `COCCNS(=O)(=O)c1ccc(Nc2nc(N)c(C(=O)c3c(F)cccc3F)s2)cc1` [Example A(3)], in that order: 7.28, 8.46, 6.47 and 720 nM.
Take `Nc1nc(Nc2ccc(S(=O)(=O)NCCO)cc2)sc1C(=O)c1c(F)cccc1F` [Example A(4), 4-[4-Amino-5-(2,6-difluoro-benzoyl)-thiazol-2-ylamino]-N-(2-hydroxy-ethyl)-benzenesulfonamide]: the figures for the pKi at CDK4/cyclin D3 and on CDK2/cyclin A were 7.55 and 8.35, respectively. The pIC50 in the experiment with HCT-116 cells was 6.00. For the same molecule, the IC90 in the experiment on HCT-116 cells turned out to be 2800 nM.
In the same order, the values of `Nc1nc(Nc2ccc(S(=O)(=O)NCCCCO)cc2)sc1C(=O)c1c(F)cccc1F` [Example A(5), 4-[4-Amino-5-(2,6-difluoro-benzoyl)-thiazol-2-ylamino]-N-(4-hydroxy-butyl)-benzenesulfonamide] are 7.62, 8.24, 5.89 and 3000 nM.
In the same order, the values of `Nc1nc(Nc2ccc(S(=O)(=O)NCCOCCO)cc2)sc1C(=O)c1c(F)cccc1F` [Example A(6), 4-[4-Amino-5-(2,6-difluoro-benzoyl)-thiazol-2-ylamino]-N-[2-(2-hydroxy-ethoxy)-ethyl]-benzenesulfonamide] are 7.59, 8.28, 5.72 and 4200 nM.
In the same order, the values of `Nc1nc(Nc2ccc(S(=O)(=O)NCCCN3CCCC3)cc2)sc1C(=O)c1c(F)cccc1F` [Example A(8), 4-[4-Amino-5-(2,6-difluoro-benzoyl)-thiazol-2-ylamino]-N-(3-pyrrolidin-1-yl-propyl)-benzenesulfonamide] are 8.00, 7.96, 5.62 and 5000 nM.
For `Nc1nc(Nc2ccc(S(=O)(=O)NCCNc3ccccc3)cc2)sc1C(=O)c1c(F)cccc1F` [Example A(9), 4-[4-Amino-5-(2,6-difluoro-benzoyl)-thiazol-2-ylamino]-N-(2-phenylamino-ethyl)-benzenesulfonamide], the pKi at CDK4/cyclin D3 is > 8.30. Also, the pKi at CDK2/cyclin A is > 8.30. In addition, in the experiment on HCT-116 cells, the pIC50 is 6.85 and the IC90 is 400 nM.
Consider `CC(C)OCCCNS(=O)(=O)c1ccc(Nc2nc(N)c(C(=O)c3c(F)cccc3F)s2)cc1` [Example A(10), 4-[4-Amino-5-(2,6-difluoro-benzoyl)-thiazol-2-ylamino]-N-(3-isopropoxy-propyl)-benzenesulfonamide], for which, on CDK4/cyclin D3, the pKi was 7.92. The pKi at CDK2/cyclin A was 8.66. Moreover, in the experiment with HCT-116 cells, the pIC50 is 6.05 and the IC90 is 2200 nM.
For `CC(CCCC(C)(C)O)NS(=O)(=O)c1ccc(Nc2nc(N)c(C(=O)c3c(F)cccc3F)s2)cc1` (stereo not drawn) [Example A(12), 4-[4-Amino-5-(2,6-difluoro-benzoyl)-thiazol-2-ylamino]-N-(5-hydroxy-1,5-dimethyl-hexyl)-benzenesulfonamide], in that order: 8.38, > 8.30, 6.82 and 630 nM.
As for `CCN(CC)CCCNS(=O)(=O)c1ccc(Nc2nc(N)c(C(=O)c3c(F)cccc3F)s2)cc1` [Example A(13), 4-[4-Amino-5-(2,6-difluoro-benzoyl)-thiazol-2-ylamino]-N-(3-diethylamino-propyl)-benzenesulfonamide], at CDK4/cyclin D3, the pKi was 8.05. In addition, the negative logarithm of the Ki (pKi) on CDK2/cyclin A is 8.00. In addition, in the experiment on HCT-116 cells, the pIC50 was 6.14 and the IC90 worked out at 3000 nM.
For `Nc1nc(Nc2ccc(S(=O)(=O)NCCCN3CCCCC3)cc2)sc1C(=O)c1c(F)cccc1F` [Example A(14), 4-[4-Amino-5-(2,6-difluoro-benzoyl)-thiazol-2-ylamino]-N-(3-piperidin-1-yl-propyl)-benzenesulfonamide], in that order: 8.09, 8.22, 6.38 and 1700 nM.
For `CC1CCCCN1CCCNS(=O)(=O)c1ccc(Nc2nc(N)c(C(=O)c3c(F)cccc3F)s2)cc1` (stereo not drawn) [Example A(15), 4-[4-Amino-5-(2,6-difluoro-benzoyl)-thiazol-2-ylamino]-N-[3-(2RS-methyl-piperidin-1-yl)-propyl]-benzenesulfonamide], in that order: 8.08, 8.09, 6.34 and 1800 nM.
For `Nc1nc(Nc2ccc(S(=O)(=O)N3CCC(CCO)CC3)cc2)sc1C(=O)c1c(F)cccc1F` [Example A(16), (4-Amino-2-{4-[4-(2-hydroxy-ethyl)-piperidine-1-sulfonyl]-phenylamino}thiazol-5-yl)-(2,6-difluoro-phenyl)-methanone], the results for the pKi on CDK4/cyclin D3 and on CDK2/cyclin A were 7.24 and 7.74, respectively. Also, the pIC50 in the experiment on HCT-116 cells was 5.82. Besides, the IC90 in the experiment with HCT-116 cells came out at 3900 nM.
